Results reported in US20120077760A1, “NOVEL SALTS OF SITAGLIPTIN” (LEK Pharmaceuticals D.D., priority 2009, published 2012).

Experiment: Solubility of sitagliptin salts in water at 25° C.
Experimental: The solubility in water was measured using Crysta™ from Avantium Technologies.

Molecule | solubility in water (in words) | Solubility in water (25° C.) [mg/mL] | solubility (25 °C, thermodynamic from solid) [mg/mL]
N[C@@H](CC(=O)N1CCn2c(nnc2C(F)(F)F)C1)Cc1cc(F)c(F)cc1F.O=C[C@H](O)[C@@H](O)[C@H](O)[C@H](O)C(=O)O [D-Glucuronate, Sitagliptin D-Glucuronate] | very good | >500 | 
N[C@@H](CC(=O)N1CCn2c(nnc2C(F)(F)F)C1)Cc1cc(F)c(F)cc1F [Dihydrogen phosphate, sitagliptin dihydrogen phosphate, reference compound] |  |  | 100 to 120
Sitagliptin Oxalate | very good |  | 
